Assay results published in patent US11976069B2, “Inhibitors of histone deacetylase useful for the treatment or prevention of HIV infection” (Merck Sharp & Dohme LLC, priority 2019, dated 2024).
Read-outs that look alike come from different tables or passages of the source.

Target: T1, HDAC6 (Homo sapiens, UniProt Q9UBN7)
T1 sequence (Q9UBN7 1-1215): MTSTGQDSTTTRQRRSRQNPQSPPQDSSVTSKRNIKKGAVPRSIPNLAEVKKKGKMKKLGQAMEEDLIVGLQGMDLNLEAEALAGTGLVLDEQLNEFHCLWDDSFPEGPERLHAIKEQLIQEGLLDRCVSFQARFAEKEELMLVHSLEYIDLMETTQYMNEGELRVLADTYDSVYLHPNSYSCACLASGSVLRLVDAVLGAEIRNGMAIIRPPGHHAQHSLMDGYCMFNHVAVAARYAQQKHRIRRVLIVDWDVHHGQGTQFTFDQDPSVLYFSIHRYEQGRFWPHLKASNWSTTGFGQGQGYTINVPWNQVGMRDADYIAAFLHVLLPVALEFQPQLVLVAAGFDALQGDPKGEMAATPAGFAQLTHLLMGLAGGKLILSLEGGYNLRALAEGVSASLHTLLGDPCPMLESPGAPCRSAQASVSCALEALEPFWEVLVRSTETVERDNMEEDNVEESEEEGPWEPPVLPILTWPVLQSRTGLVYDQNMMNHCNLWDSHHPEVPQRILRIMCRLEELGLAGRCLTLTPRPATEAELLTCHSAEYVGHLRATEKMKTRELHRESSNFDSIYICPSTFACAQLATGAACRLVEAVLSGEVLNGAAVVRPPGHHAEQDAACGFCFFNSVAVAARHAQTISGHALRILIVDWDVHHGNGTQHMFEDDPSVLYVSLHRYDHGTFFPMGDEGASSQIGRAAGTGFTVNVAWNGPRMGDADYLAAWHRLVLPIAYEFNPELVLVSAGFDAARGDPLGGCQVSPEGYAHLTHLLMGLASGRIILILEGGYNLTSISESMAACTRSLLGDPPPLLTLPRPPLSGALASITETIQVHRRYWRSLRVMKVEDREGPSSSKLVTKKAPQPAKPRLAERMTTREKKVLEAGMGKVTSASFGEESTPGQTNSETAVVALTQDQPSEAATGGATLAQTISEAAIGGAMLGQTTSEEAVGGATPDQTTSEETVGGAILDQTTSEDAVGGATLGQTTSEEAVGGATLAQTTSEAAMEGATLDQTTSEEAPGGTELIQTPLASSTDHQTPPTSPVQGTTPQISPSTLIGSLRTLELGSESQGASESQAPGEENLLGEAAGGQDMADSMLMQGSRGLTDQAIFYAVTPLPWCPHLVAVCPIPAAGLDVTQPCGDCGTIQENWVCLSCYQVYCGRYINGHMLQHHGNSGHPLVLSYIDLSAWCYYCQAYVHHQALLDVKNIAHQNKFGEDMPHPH
Assay: HDAC6 inhibition, modified Fluor-de-Lys assay
Type: biochemical
Details: 3 h pre-incubation, read-out: HDAC-6 IC50
Method: Human HDAC Enzyme Inhibitor FLUOR-DE-LYS Assay Materials
The histone deacetylase activities of HDAC1, HDAC2, HDAC3, HDAC6, and HDAC8 were measured in modified Fluor-de-Lys assays in 384-well format. In this assay, HDAC enzymes are initially incubated with an ε-acetyl (or -trifluoroacetyl)-L-lysine-containing substrate with a C-terminal amide having aminomethylcoumarin as the amine component. HDACs cleave the ε-acetyl group, rendering the resulting product susceptible to AMC cleavage by trypsin. The released AMC is then detected by its fluorescence.
The HDAC 1, 2 assays employed buffer A, which contained 20 mM HEPES, pH 8.0, 1 mM MgCl2, 137 mM NaCl, 2.7 mM KCl, 0.05% BSA. The HDAC3/SMRT assay employed buffer B, consisting of 20 mM HEPES, pH 8.0, 1 mM MgCl2, 50 mM NaCl, 2.7 mM KCl, 0.05% BSA, 0.005% Tween 20, and 10 μM IP4. The HDAC6 assay employed buffer C, consisting of 20 mM HEPES, pH 8.0, 1 mM MgCl2, 137 mM NaCl, 2.7 mM KCl, 0.5 mM TCEP (Calbiochem) and 0.05% BSA. The HDAC8 assay employed buffer D, consisting of 20 mM HEPES, pH 8.0, 1 mM MgCl2, 100 mM NaCl, 20 mM KCl, 0.1% n-octyl-β-D-glucoside (Anatrace, Maumee, Ohio) and 0.05% BSA. All steps were performed at room temperature (23° C.). The assay was performed by pre-incubating serial dilutions of test compounds with the target HDAC prior to initiation with substrate. Each compound was titrated in a 10-point dose response, using a 1:3 fold dilution scheme, with 0.15 ul of solution added by ECHO555 to the plate, followed by the addition of 20 μl of the appropriate HDAC isoform diluted in appropriate assay buffer. […] Final conditions used for each assay were: 1. HDAC 1, 0.3 nM total enzyme, 20 μM substrate BML-KI104; 2. HDAC 2, 1.5 nM total enzyme, 40 μM substrate BML-KI104; 3. HDAC 3/SMRT, 0.3 nM total enzyme, 20 μM substrate BML-KI104; 4. HDAC 6, 1.3 nM total enzyme, 2.5 μM substrate BML-KI104; 5. HDAC 8, 1.3 nM total enzyme, 200 μM substrate BML-KI178; the final high dose of test compound was 30 μM. For potent compounds, 900 nM was used as the final high dose. The reactions were stopped and developed by addition of 30 ul of HDAC developer solution containing a saturating level of HDAC inhibitor as follows: 1.

[1] = […] enzyme, […] substrate BML-KI104
[2] = 1.3 nM enzyme, 2.5 μM substrate BML-KI104

Work on `CCC(=O)CCCCC[C@@H]1NC(=O)[C@H]2CC23CCN(CCCCCCCCn2ccc4cc(c(OC)cc4c2=O)-c2cnc1[nH]2)CC3` [Compound 5, (1^1S,4S)-6^7-methoxy-4-(6-oxooctyl)-6^1,6^2-dihydro-5^1H-3-aza-6(6,2)-isoquinolina-15(4,1)-piperidina-5(2,5)-imidazola-1(1,2)-cyclopropanapentadecaphane-6^1,2-dione] yielded an IC50 [1] of 218 nM.

`CCC(=O)CCCCCC1NC(=O)C2CC2N2CCC(CCCCCn3c(=O)ccc4cc(ccc43)-c3cnc1o3)CC2` [Compound 7, (11S,4S)-4-(6-oxooctyl)-61,62-dihydro-3-aza-5(2,5)-oxazola-6(6,1)-quinolina-12(4,1)-piperidina-1(1,2)-cyclopropanadodecaphane-62,2-dione] showed an IC50 [1] of 858 nM.

With `CCC(=O)CCCCC[C@H](NC(=O)[C@H]1CC12CCN(CC)CC2)c1[nH]c2nc1C(=O)NCCC/C=C\c1cccc-2c1` [Compound 14, (1S)-6-ethyl-N-{(1S)-7-oxo-1-[(11Z)-6-oxo-3,7,18-triazatricyclo[11.3.1.1~2,5~]octadeca-1(17),2(18),4,11,13,15-hexaen-4-yl]nonyl}-6-azaspiro[2.5]octane-1-carboxamide] the IC50 [2] was greater than 90 nM.

`CCC(=O)CCCCC[C@H](NC(=O)[C@H]1CC12CCN(CC)CC2)c1[nH]c2nc1C(=O)NCCC/C=C/c1cccc-2c1` [Compound 15, (1S)-6-ethyl-N-{(1S)-7-oxo-1-[(11E)-6-oxo-3,7,18-triazatricyclo[11.3.1.1~2,5~]octadeca-1(17),2(18),4,11,13,15-hexaen-4-yl]nonyl}-6-azaspiro[2.5]octane-1-carboxamide] gave an IC50 [2] greater than 900 nM.

With “(11S,4S)-4-(6-oxooctyl)-61,62-dihydro-3-aza-5(2,5)-oxazola-6(6,1)-quinolina-12(4,1)-piperidina-1(1,2)-cyclopropanadodecaphane-62,2-dione [Compound 8]” the IC50 [1] was greater than 900 nM.
